Measurements as given in US9221875B2, “Amphiphilic peptides for treatment of keratitis” (Agency for Science, Technology and Research, priority 2013, dated 2015).
In brackets after ≈: the same amount, converted by molar mass. Read-outs that look alike come from different tables or passages of the source. Marks after values point to notes of the source that are not given here. Square brackets hold non-standard residues; d marks the D form. Peptide text beside a SMILES is read from it.

How the values were obtained:
C. albicans [1] = details: 42 h
E. coli [2] = details: 18 h
[3] = tested on: 5 microorganisms tested (S. epidermidis, S. aureus, E. coli, P. aeruginosa, C. albicans); test: Mean MIC over the panel and selectivity index (Example 1); type: cell-based
Description: Red blood cells suspension incubated with PBS was used as negative control.

P. aeruginosa [4] = details: 18 h
S. aureus [5] = details: 18 h
S. epidermidis [6] = details: 18 h
C. albicans [7] = tested on: C. albicans
E. coli [8] = details: 18 h; remark: listed apart in the source
P. aeruginosa [9] = details: 18 h; remark: listed apart in the source
S. epidermidis [10] = details: 18 h; remark: listed apart in the source
rabbit red blood cells = type: cell-based; details: red cells of rabbit, 1 h
S. aureus [11] = details: 18 h; remark: listed apart in the source
[12] = tested on: 5 microorganisms tested (S. epidermidis, S. aureus, E. coli, P. aeruginosa, C. albicans); test: Mean MIC over the panel and selectivity index (Example 2)
[13] = tested on: clinically isolated Mycobacterium tuberculosis
C. albicans keratitis = test: Contact lens-associated C. albicans keratitis mouse model
mice = details: reported values; cited from earlier work
E. coli [14] = type: cell-based, Escherichia coli
[15] = topical eye drops, peptides 3000 mg/L, amphotericin B 1000 mg/L

Row | Compound | MIC C. albicans (C. albicans [1]) [µg/mL] | MIC E. coli (E. coli [2]) [µg/mL] | GM, geometric mean of MIC values for the 5 microorganisms tested [3] [µg/mL] | MIC P. aeruginosa (P. aeruginosa [4]) [µg/mL] | MIC S. aureus (S. aureus [5]) [µg/mL] | MIC S. epidermidis (S. epidermidis [6]) [µg/mL] | MIC C. albicans (C. albicans [7]) [µg/mL] | MIC E. coli (E. coli [8]) [µg/mL] | MIC P aeruginosa (P. aeruginosa [9]) [µg/mL] | MIC S. aureus (S. aureus [11]) [µg/mL] | further results
1 | N=C(N)NCCC[C@H](NC(=O)[C@H](Cc1ccccc1)NC(=O)[C@H](CCCCN)NC(=O)[C@H](Cc1ccccc1)NC(=O)[C@H](CCCNC(=N)N)NC(=O)[C@@H](N)Cc1ccccc1)C(=O)N[C@@H](Cc1ccccc1)C(=O)N[C@@H](CCCCN)C(N)=O [(FRFK)2-NH2] (H-FRFKFRFK-NH2; N-terminus assumed) | 62.5 (≈ 53.2 µM) | 15.6 (≈ 13.3 µM) | 79.7 | 62.5 (≈ 53.2 µM) | 250 (≈ 213 µM) | 7.8 (≈ 6.64 µM) | – | – | – | – | –
2 | CC[C@H](C)[C@H](N)C(=O)N[C@@H](CCCNC(=N)N)C(=O)N[C@H](C(=O)N[C@@H](CCCNC(=N)N)C(=O)N[C@H](C(=O)N[C@@H](CCCNC(=N)N)C(=O)N[C@H](C(=O)N[C@@H](CCCNC(=N)N)C(N)=O)[C@@H](C)CC)[C@@H](C)CC)[C@@H](C)CC [(IRIR)2-NH2] (H-IRIRIRIR-NH2; N-terminus assumed) | 15.6 (≈ 14.3 µM) | 7.8 (≈ 7.13 µM) | 13.3 | 7.8 (≈ 7.13 µM) | 31.3 (≈ 28.6 µM) | 3.9 (≈ 3.56 µM) | – | – | – | – | –
3 | CC[C@H](C)[C@H](N)C(=O)N[C@@H](CCCNC(=N)N)C(=O)N[C@H](C(=O)N[C@@H](CCCCN)C(=O)N[C@H](C(=O)N[C@@H](CCCNC(=N)N)C(=O)N[C@H](C(=O)N[C@@H](CCCCN)C(N)=O)C(C)C)[C@@H](C)CC)C(C)C [(IRVK)2-NH2] (H-IRVKIRVK-NH2; N-terminus assumed) | 7.8 (≈ 7.72 µM) | 62.5 (≈ 61.9 µM) | 78.1 | 62.5 (≈ 61.9 µM) | 250 (≈ 247 µM) | 7.8 (≈ 7.72 µM) | – | – | – | – | –
4 | CC(C)[C@H](N)C(=O)N[C@@H](CCCNC(=N)N)C(=O)N[C@H](C(=O)N[C@@H](CCCCN)C(=O)N[C@H](C(=O)N[C@@H](CCCNC(=N)N)C(=O)N[C@H](C(=O)N[C@@H](CCCCN)C(N)=O)C(C)C)C(C)C)C(C)C [(VRVK)2-NH2] (H-VRVKVRVK-NH2; N-terminus assumed) | 15.6 (≈ 15.9 µM) | 250 (≈ 255 µM) | – | >500 | >500 | 62.5 (≈ 63.6 µM) | – | – | – | – | –
5 | N=C(N)NCCC[C@H](NC(=O)[C@H](Cc1c[nH]c2ccccc12)NC(=O)[C@H](CCCCN)NC(=O)[C@H](Cc1c[nH]c2ccccc12)NC(=O)[C@H](CCCNC(=N)N)NC(=O)[C@@H](N)Cc1c[nH]c2ccccc12)C(=O)N[C@@H](Cc1c[nH]c2ccccc12)C(=O)N[C@@H](CCCCN)C(N)=O [(WRWK)2-NH2] (H-WRWKWRWK-NH2; N-terminus assumed) | 250 (≈ 188 µM) | 15.6 (≈ 11.7 µM) | 92.2 | 125 (≈ 93.9 µM) | 62.5 (≈ 47 µM) | 7.8 (≈ 5.86 µM) | – | – | – | – | –
6 | CC[C@@H](C)[C@@H](N)C(=O)N[C@@H](C(=O)N[C@H](CCCNC(=N)N)C(=O)N[C@H](CCCCN)C(=O)N[C@@H](C(=O)N[C@@H](C(=O)N[C@H](CCCNC(=N)N)C(=O)N[C@H](CCCCN)C(N)=O)[C@H](C)CC)[C@H](C)CC)[C@H](C)CC [Control-all D, iirkiirk-NH2] (H-[dI][dI][dR][dK][dI][dI][dR][dK]-NH2; N-terminus assumed) | – | – | – | – | – | – | 250 (≈ 241 µM) | >500 | >500 | >500 | MIC S. epidermidis (S. epidermidis [10]): >500 µg/mL; HC10, haemolysis concentration 10%: lowest peptide concentration that induces ≧10% haemolysis (rabbit red blood cells): >2000 mg/L
7 | CC[C@@H](C)[C@@H](N)C(=O)N[C@H](CCCNC(=N)N)C(=O)N[C@@H](C(=O)N[C@H](CCCCN)C(=O)N[C@@H](C(=O)N[C@H](CCCNC(=N)N)C(N)=O)[C@H](C)CC)[C@H](C)CC [IK6-all D, irikir-NH2] (H-[dI][dR][dI][dK][dI][dR]-NH2; N-terminus assumed) | – | – | – | – | – | – | 15.6 (≈ 19.6 µM) | 62.5 (≈ 78.4 µM) | 125 (≈ 157 µM) | 250 (≈ 314 µM) | GM, geometric mean of MIC values for the 5 microorganisms tested [12]: 113.3 µg/mL
8 | CC[C@H](C)[C@H](N)C(=O)N[C@@H](CCCNC(=N)N)C(=O)N[C@H](C(=O)N[C@H](CCCCN)C(=O)N[C@H](C(=O)N[C@H](CCCNC(=N)N)C(=O)N[C@H](C(=O)N[C@@H](CCCCN)C(N)=O)[C@@H](C)CC)[C@@H](C)CC)[C@@H](C)CC [IK8-2D, IRIkIrIK-NH2] (H-IRI[dK]I[dR]IK-NH2; N-terminus assumed) | – | – | – | – | – | – | 3.9 (≈ 3.76 µM) | 15.6 (≈ 15 µM) | 7.8 (≈ 7.51 µM) | 31.3 (≈ 30.1 µM) | GM, geometric mean of MIC values for the 5 microorganisms tested [12]: 12.5 µg/mL; MIC S. epidermidis (S. epidermidis [10]): 3.9 µg/mL (≈ 3.76 µM); HC10, haemolysis concentration 10%: lowest peptide concentration that induces ≧10% haemolysis (rabbit red blood cells): 1600 mg/L; MIC M. tuberculosis ([13]; strain number 1173): 62.5 µg/mL (≈ 60.2 µM); MIC M. tuberculosis ([13]; strain number 1177): 62.5 µg/mL (≈ 60.2 µM); MIC M. tuberculosis ([13]; strain number 1178): 62.5 µg/mL (≈ 60.2 µM); MIC M. tuberculosis ([13]; strain number 1179): 125 µg/mL (≈ 120 µM)
9 | CC[C@@H](C)[C@@H](N)C(=O)N[C@H](CCCNC(=N)N)C(=O)N[C@@H](C(=O)N[C@H](CCCCN)C(=O)N[C@@H](C(=O)N[C@H](CCCNC(=N)N)C(=O)N[C@@H](C(=O)N[C@H](CCCCN)C(=O)N[C@@H](C(=O)N[C@H](CCCNC(=N)N)C(=O)N[C@@H](C(=O)N[C@H](CCCCN)C(N)=O)C(C)C)[C@H](C)CC)C(C)C)[C@H](C)CC)C(C)C [IK12-all D, irvkirvkirvk-NH2] (H-[dI][dR][dV][dK][dI][dR][dV][dK][dI][dR][dV][dK]-NH2; N-terminus assumed) | – | – | – | – | – | – | 31.3 (≈ 20.8 µM) | 7.8 (≈ 5.18 µM) | 15.6 (≈ 10.4 µM) | 7.8 (≈ 5.18 µM) | GM, geometric mean of MIC values for the 5 microorganisms tested [12]: 12.7 µg/mL; fold reduction in MIC values compared with the L-enantiomer ([12]; against the various bacteria): 2-4 fold; MIC S. epidermidis (S. epidermidis [10]): 1.0 µg/mL (≈ 0.664 µM); HC10, haemolysis concentration 10%: lowest peptide concentration that induces ≧10% haemolysis (rabbit red blood cells): >125^e) mg L^−1
10 | C[C@@H]1[C@H](O)[C@@H](C)/C=C/C=C/C=C/C=C/C=C/C=C/C=C/[C@H](O[C@@H]2O[C@H](C)[C@@H](O)[C@H](N)[C@@H]2O)C[C@@H]2O[C@](O)(C[C@@H](O)C[C@@H](O)[C@H](O)CC[C@@H](O)C[C@@H](O)CC(=O)O[C@H]1C)C[C@H](O)[C@H]2C(=O)O [amphotericin B, reference compound] | – | – | – | – | – | – | – | – | – | – | fungal cells eradicated from the biofilms compared to the untreated control group (C. albicans keratitis; C. albicans counts in mice cornea, agar plating): ~90%; depth of hyphal invasion into the cornea, PAS histology (C. albicans keratitis; [15]): reduced the maximal depth of hyphal invasion; resolution of the keratitis infection (eye appearance) (C. albicans keratitis; [15]): significant resolution of the keratitis infection; clinical scores of mice corneas (slit lamp) (C. albicans keratitis; topical eye drops, peptides 3000 mg/L, amphotericin B 1000 mg/L, P<0.01): significantly lower than that in the control group
11 | Polymyxin B [reference compound] | – | 2.0 | 41.4 | 2.0 | 125 | 15.6 | – | – | – | – | MIC C. albicans (C. albicans [1]; room temperature): 62.5 µg/mL; LD50 reported for comparator (mice): 5.4 mg/kg
12 | gentamicin sulfate | – | – | – | – | – | – | – | – | – | – | MICn/MIC0 (E. coli [14]; passage 2): 2; MICn/MIC0 (E. coli [14]; passage 6): 4
13 | gramicidin | – | – | – | – | – | – | – | – | – | – | LD50 reported for comparator (mice): 1.5 mg/kg
